# In US20050060764A1, “Mouse model for bone metabolism” (priority 2003, published 2005):
# Strand notation (5' to 3'): a small letter for the sugar, then the base; units joined by * are phosphorothioate-linked, units joined directly phosphodiester-linked; [ ] holds rarer units or linkages, { } end groups; capitals alone tell only the bases. e = 2'-O-(2-methoxyethyl) (MOE); [5mC] = 5-methylcytosine; d = 2'-deoxy (DNA)
# How the values were obtained:
# [1] = tested on: mouse RANKL mRNA; experiment: Antisense inhibition of mouse RANKL mRNA in C2C12 cells: dose response (Table 5); type: cell-based; details: relative to untreated control
# Experimental: (§1) Cells were seeded into 24-well plates (Falcon-353047 at a density of ˜10,000 cells/cm^2 for use in antisense oligonucleotide transfection.
# (§2) Cells are treated and data are obtained in triplicate. […] Cells were harvested 16-24 hours after oligonucleotide treatment.
# (§3) Probes and primers to mouse RANKL were designed to hybridize to a mouse RANKL sequence, using published sequence information (GenBank accession number AF013170.1, incorporated herein as SEQ ID NO:ll). For mouse RANKL the PCR primers were: • forward primer: […] (SEQ ID NO:12) • reverse primer: […] (SEQ ID NO: 13) and • the PCR probe was: FAM-[…]-TAMRA (SEQ ID NO: 14) where FAM is the fluorescent reporter dye and TAMRA is the quencher dye. For mouse GAPDH the PCR primers were: • forward primer: […](SEQ ID NO:15) • reverse primer: […](SEQ ID NO:16) and the • PCR probe was: 5′ JOE-[…]-TAMRA 3′ (SEQ ID NO: 17) where JOE is the fluorescent reporter dye and TAMRA is the quencher dye.
# In accordance with the present invention, a subset of the antisense oligonucleotides in Example 16 was further investigated in dose-response studies. The oligonucleotides used in this investigation were ISIS 180812 (SEQ ID NO: 178), ISIS 180814 (SEQ ID NO: 180), ISIS 180819 (SEQ ID NO: 185), ISIS 180828 (SEQ ID NO: 194) and the control oligonucleotide ISIS 101757 ([…], SEQ ID NO: 355). […] All cytidine residues are 5-methylcytidines.
# C2C12 cells were treated with the oligonucleotides at 10, 50, 75, 100, and 150 nM as described in other examples herein. […] The results are expressed as percent inhibition relative to the untreated control. The data, shown in Table 5, are averages from two experiments and illustrate the oligonucleotides of the present invention are able to downregulate RANKL mRNA expression in a dose-dependent manner.
# [2] = tested on: rat RANKL mRNA; experiment: Antisense inhibition of rat RANKL mRNA levels in UMR-106 cells, quantitative real-time PCR (Table 3); type: cell-based; set-up: concentration or dose not given beside the values; details: averages from three experiments
# In short: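 UMR-106 cells transfected with antisense oligonucleotides (5-methylcytidine throughout) in triplicate, harvested 16-24 h after treatment. RANKL mRNA quantified by real-time RT-PCR with a FAM/TAMRA probe, using rat GAPDH (JOE/TAMRA probe) as the reference.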
# [3] = tested on: mouse RANKL mRNA; experiment: Antisense inhibition of mouse RANKL mRNA levels in C2C12 cells, quantitative real-time PCR (Table 2); type: cell-based; set-up: concentration or dose not given beside the values; details: averages from three experiments
# Experimental: as §1, §2
# PCR reagents were obtained from Invitrogen Corporation, (Carlsbad, Calif.).
# as §3
# In accordance with the present invention, a second series of antisense compounds was designed to target different regions of the mouse RANKL RNA, using published sequences (GenBank accession number AF013170.1, incorporated herein as SEQ ID NO: 11). […] All cytidine residues are 5-methylcytidines. […] If present “N.D.” indicates “no data”.
# [4] = Serum calcium concentration 24 hours after PTH infusion in mice treated with RANKL antisense oligonucleotides (Table 10); type: in vivo, mouse; details: mice
# Experimental: In accordance with the present invention, the effect of antisense oligonucleotide inhibition on PTH-induced serum calcium concentration increase was measured in mice. The serum calcium concentration in mice was measured as a function of antisense oligonucleotide dose. Calcitonin, a known bone antiresorptive agent, was used as a control for antiresorptive activity.
# Female Swiss-Webster (5-8 wks old) mice fed a low-calcium diet were dosed subcutaneously for two weeks with either the oligonucleotides ISIS 180819 (SEQ ID NO: 185) or 180814 (SEQ ID NO: 180) at concentrations of 5 mg/kg, 15 mg/kg, 30 mg/kg, or 40 mg/kg. A control group of mice were treated with calcitonin (400 ng) plus PTH (1 ug/100 g/6 hr), PTH alone (1 ug/100 g/6 hr) or saline. Treatment with oligonucleotides was followed with infusion of PTH by subcutaneously implanted mini-pumps at a dose of 1 ug/100 g/6 hr. After 24 hours of PTH infusion (total PTH delivery of 4 ug/100 g), the mice were sacrificed and the serum calcium concentration was measured with the Sigma Diagnostics Calcium Kit (Sigma-Aldrich). The data, summarized in Table 10 are averages from eight mice. Percent mRNA inhibition is normalized to PTH alone treatment.
substance,measurement,setting,value
101757 (antisense eA*eG*eG*eT*eG*d[5mC]*dT*d[5mC]*dA*dG*dG*dA*d[5mC]*dT*d[5mC]*e[5mC]*eA*eT*eT*eT) [compound 101757],% Inhibition of RANKL mRNA,[1]; 50 nM oligonucleotide,17%
same,% Inhibition of RANKL mRNA,[1]; 100 nM oligonucleotide,13%
180802 (antisense eG*e[5mC]*eT*e[5mC]*eG*dA*dA*dA*dG*dT*dA*d[5mC]*dA*dG*dG*eA*eA*e[5mC]*eA*eG) [compound 180802],% INHIB (inhibition of rat RANKL mRNA levels),[2],40%
same,% INHIB (inhibition of mouse RANKL mRNA levels),[3],79%
180807 (antisense eA*eG*e[5mC]*eA*eA*dA*dT*dG*dT*dT*dG*dG*d[5mC]*dG*dT*eA*e[5mC]*eA*eG*eG) [compound 180807],% INHIB (inhibition of rat RANKL mRNA levels),[2],48%
same,% INHIB (inhibition of mouse RANKL mRNA levels),[3],74%
180809 (antisense eG*eG*eA*eT*eT*dT*dT*dG*dA*dT*dG*d[5mC]*dT*dG*dG*eT*eT*eT*eT*eA) [compound 180809],% INHIB (inhibition of rat RANKL mRNA levels),[2],57%
same,% INHIB (inhibition of mouse RANKL mRNA levels),[3],53%
180812 (antisense eT*e[5mC]*e[5mC]*eG*eG*dA*dT*d[5mC]*d[5mC]*dA*dG*d[5mC]*dA*dG*dG*eG*eA*eA*eG*eG) [compound 180812],% Inhibition of RANKL mRNA,[1]; 10 nM oligonucleotide,0%
same,% Inhibition of RANKL mRNA,[1]; 50 nM oligonucleotide,5%
same,% Inhibition of RANKL mRNA,[1]; 75 nM oligonucleotide,13%
same,% Inhibition of RANKL mRNA,[1]; 100 nM oligonucleotide,20%
same,% Inhibition of RANKL mRNA,[1]; 150 nM oligonucleotide,45%
same,% INHIB (inhibition of mouse RANKL mRNA levels),[3],47%
180814 (antisense eG*eT*e[5mC]*eT*eT*dA*d[5mC]*dA*d[5mC]*dA*dT*dG*dT*dA*dT*eA*eG*eA*e[5mC]*eA) [compound 180814],% Inhibition of RANKL mRNA,[1]; 10 nM oligonucleotide,12%
same,% Inhibition of RANKL mRNA,[1]; 50 nM oligonucleotide,14%
same,% Inhibition of RANKL mRNA,[1]; 75 nM oligonucleotide,61%
same,% Inhibition of RANKL mRNA,[1]; 100 nM oligonucleotide,70%
same,% Inhibition of RANKL mRNA,[1]; 150 nM oligonucleotide,81%
same,% INHIB (inhibition of mouse RANKL mRNA levels),[3],66%
same,PTH-induced increase in serum calcium concentration,"[4]; s.c. two weeks 5, 15, 30 or 40 mg/kg, 24 hours PTH infusion",lessen the PTH-induced increase in serum calcium concentration
180828 (antisense eT*eT*eT*eA*eT*dT*dT*dT*dG*d[5mC]*dT*dT*dG*d[5mC]*dA*eT*eA*eG*eT*eT) [compound 180828],% Inhibition of RANKL mRNA,[1]; 10 nM oligonucleotide,31%
same,% Inhibition of RANKL mRNA,[1]; 50 nM oligonucleotide,43%
same,% Inhibition of RANKL mRNA,[1]; 75 nM oligonucleotide,23%
same,% Inhibition of RANKL mRNA,[1]; 100 nM oligonucleotide,31%
same,% Inhibition of RANKL mRNA,[1]; 150 nM oligonucleotide,40%
same,% INHIB (inhibition of mouse RANKL mRNA levels),[3],44%
"agcaaatgttggcgtacagg (antisense eA*eG*e[5mC]*eA*eA*dA*dT*dG*dT*dT*dG*dG*d[5mC]*dG*dT*eA*e[5mC]*eA*eG*eG) [ISIS 180807, 2′-MOE gapmer targeted to mouse and rat RANKL]",% INHIB (inhibition of rat RANKL mRNA levels),[2],at least 40%
same,% INHIB (inhibition of mouse RANKL mRNA levels),[3],at least 40%
calcitonin [reference compound],inhibition of PTH-induced serum calcium concentration,"[4]; PTH infusion, n=8",66 % inhibition
"gctcgaaagtacaggaacag (antisense eG*e[5mC]*eT*e[5mC]*eG*dA*dA*dA*dG*dT*dA*d[5mC]*dA*dG*dG*eA*eA*e[5mC]*eA*eG) [ISIS 180802, 2′-MOE gapmer targeted to mouse and rat RANKL]",% INHIB (inhibition of rat RANKL mRNA levels),[2],at least 40%
same,% INHIB (inhibition of mouse RANKL mRNA levels),[3],at least 40%
"gctggcccggcgcatggcgc (antisense eG*e[5mC]*eT*eG*eG*d[5mC]*d[5mC]*d[5mC]*dG*dG*d[5mC]*dG*d[5mC]*dA*dT*eG*eG*e[5mC]*eG*e[5mC]) [ISIS 180795, 2′-MOE gapmer targeted to mouse RANKL]",% INHIB (inhibition of mouse RANKL mRNA levels),[3],at least 40%
"ggattttgatgctggtttta (antisense eG*eG*eA*eT*eT*dT*dT*dG*dA*dT*dG*d[5mC]*dT*dG*dG*eT*eT*eT*eT*eA) [ISIS 180809, 2′-MOE gapmer targeted to mouse and rat RANKL]",% INHIB (inhibition of rat RANKL mRNA levels),[2],at least 40%
same,% INHIB (inhibition of mouse RANKL mRNA levels),[3],at least 40%
"ggcttgcctcgctgggccac (antisense eG*eG*e[5mC]*eT*eT*dG*d[5mC]*d[5mC]*dT*d[5mC]*dG*d[5mC]*dT*dG*dG*eG*e[5mC]*e[5mC]*eA*e[5mC]) [ISIS 180805, 2′-MOE gapmer targeted to mouse RANKL]",% INHIB (inhibition of mouse RANKL mRNA levels),[3],at least 40%
"gttcacaaaggtcctggcag (antisense eG*eT*eT*e[5mC]*eA*d[5mC]*dA*dA*dA*dG*dG*dT*d[5mC]*d[5mC]*dT*eG*eG*e[5mC]*eA*eG) [ISIS 180788, 2′-MOE gapmer targeted to mouse RANKL]",% INHIB (inhibition of mouse RANKL mRNA levels),[3],at least 40%
"tcagaattgcccgaccagtt (antisense eT*e[5mC]*eA*eG*eA*dA*dT*dT*dG*d[5mC]*d[5mC]*d[5mC]*dG*dA*d[5mC]*e[5mC]*eA*eG*eT*eT) [ISIS 180810, 2′-MOE gapmer targeted to mouse RANKL]",% INHIB (inhibition of mouse RANKL mRNA levels),[3],at least 40%
"tcagtggcacatgtccaggg (antisense eT*e[5mC]*eA*eG*eT*dG*dG*d[5mC]*dA*d[5mC]*dA*dT*dG*dT*d[5mC]*e[5mC]*eA*eG*eG*eG) [ISIS 180818, 2′-MOE gapmer targeted to mouse RANKL]",% INHIB (inhibition of mouse RANKL mRNA levels),[3],at least 40%
"tccggatccagcagggaagg (antisense eT*e[5mC]*e[5mC]*eG*eG*dA*dT*d[5mC]*d[5mC]*dA*dG*d[5mC]*dA*dG*dG*eG*eA*eA*eG*eG) [ISIS 180812, 2′-MOE gapmer targeted to mouse RANKL]",% INHIB (inhibition of mouse RANKL mRNA levels),[3],at least 40%
"tcggctggcccggcgcatgg (antisense eT*e[5mC]*eG*eG*e[5mC]*dT*dG*dG*d[5mC]*d[5mC]*d[5mC]*dG*dG*d[5mC]*dG*e[5mC]*eA*eT*eG*eG) [ISIS 180796, 2′-MOE gapmer targeted to mouse RANKL]",% INHIB (inhibition of mouse RANKL mRNA levels),[3],at least 40%
"tctcggctggcccggcgcat (antisense eT*e[5mC]*eT*e[5mC]*eG*dG*d[5mC]*dT*dG*dG*d[5mC]*d[5mC]*d[5mC]*dG*dG*e[5mC]*eG*e[5mC]*eA*eT) [ISIS 180797, 2′-MOE gapmer targeted to mouse RANKL]",% INHIB (inhibition of mouse RANKL mRNA levels),[3],at least 40%
"tcttcactctccagagtcga (antisense eT*e[5mC]*eT*eT*e[5mC]*dA*d[5mC]*dT*d[5mC]*dT*d[5mC]*d[5mC]*dA*dG*dA*eG*eT*e[5mC]*eG*eA) [ISIS 180803, 2′-MOE gapmer targeted to mouse RANKL]",% INHIB (inhibition of mouse RANKL mRNA levels),[3],at least 40%
"tgctccgcgatcgttctctc (antisense eT*eG*e[5mC]*eT*e[5mC]*d[5mC]*dG*d[5mC]*dG*dA*dT*d[5mC]*dG*dT*dT*e[5mC]*eT*e[5mC]*eT*e[5mC]) [ISIS 180792, 2′-MOE gapmer targeted to mouse RANKL]",% INHIB (inhibition of mouse RANKL mRNA levels),[3],at least 40%
"tttattttgcttgcatagtt (antisense eT*eT*eT*eA*eT*dT*dT*dT*dG*d[5mC]*dT*dT*dG*d[5mC]*dA*eT*eA*eG*eT*eT) [ISIS 180828, 2′-MOE gapmer targeted to mouse RANKL]",% INHIB (inhibition of mouse RANKL mRNA levels),[3],at least 40%
